Test results published in patent US12729458B2, “Discovery and evolution of biologically active metabolites” (The Regents of the University of Colorado, a Body Corporate, priority 2020, dated 2026).
Where two headings read alike, the source gives them in different places.

What was measured:
[1] = molecular target: T1, PTP1B (PTP1B1-321) (Homo sapiens, UniProt P18031); test: PTP1B-catalyzed hydrolysis of pNPP in the presence of terpenoids (enzyme kinetics, IC50 from best-fit models); type: biochemical, H. sapiens; conditions: for IC50: 15 mM pNPP, 10% DMSO; for Ki: PTP1B1-321
T1 construct: His-tag; made in house; host or cells: E. coli BL21 (DE3), pET21b
T1 sequence (P18031 1-321): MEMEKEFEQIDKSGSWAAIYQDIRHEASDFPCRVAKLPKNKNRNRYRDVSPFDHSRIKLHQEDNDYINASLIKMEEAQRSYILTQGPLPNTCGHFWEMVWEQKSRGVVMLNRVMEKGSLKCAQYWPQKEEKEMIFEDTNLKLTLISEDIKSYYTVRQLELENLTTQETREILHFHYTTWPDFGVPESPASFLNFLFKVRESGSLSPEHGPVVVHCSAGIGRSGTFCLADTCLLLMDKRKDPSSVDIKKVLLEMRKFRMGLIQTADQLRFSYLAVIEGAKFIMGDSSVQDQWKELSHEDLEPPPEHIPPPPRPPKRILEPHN
Description: Enzyme kinetics. To examine terpenoid-mediated inhibition, PTP1B-catalyzed hydrolysis of p-nitrophenyl phosphate (pNPP) was measured in the presence of various concentrations of terpenoids. Each reaction included PTP1B ([…]), pNPP (0.33, 0.67, 2, 5, 10, and 15 mM), inhibitors (110 μM, 50 μM, and 15 μM for amorphadiene; 100 μM, 50 μM, and 16.7 μM for taxadiene), and buffer (50 mM HEPES pH=7.5, 0.5 mM TCEP, 50 μg/ml BSA, 10% DMSO). The formation of p-nitrophenol was monitored by measuring absorbance at 405 nm every 10 seconds for 5 minutes on a Spectramax M2 plate reader.
Kinetic models were evaluated in three steps: (i) Initial-rate measurements collected in the absence and presence of inhibitors were fitted to Michaelis-Menten and inhibition models, respectively (here, the nlinfit and fminsearch functions from MATLAB were used). (ii) An F-test was used to compare the mixed model to the single-parameter model with the least sum squared error (here, the fcdf function from MATLAB was used to assign p-values), and the mixed model was accepted when p<0.05.
The MATLAB function “nlparci” was used to determine the confidence intervals of kinetic parameters, and those intervals were propagated to estimate corresponding confidence on IC50's.
Enzyme kinetics. To examine terpenoid-mediated inhibition, we measured PTP-catalyzed hydrolysis of p-nitrophenyl phosphate (pNPP) or 4-methylumbelliferyl phosphate (4-MUP, used when KM for pNPP was large) in the presence of various concentrations of terpenoids. Each reaction included PTP (0.05 μM PTP1B/TCPTP or 0.1 μM SHP1/SHP2 in 50 mM HEPES, 0.5 mM TCEP, 50 μg/ml BSA), pNPP (0.33, 0.67, 2, 5, 10, and 15 mM) or 4-MUP (0.13, 0.27, 0.8, 2.27, 2.93, 4.53, 7.07, and 8 mM), inhibitor (with concentrations listed in the figures), buffer (50 mM HEPES pH=7.3, 50 μg/ml BSA), and DMSO at 10% v/v. We monitored the formation of p-nitrophenol by measuring absorbance at 405 nm every 10 seconds for 5 minutes on a SpectraMax M2 plate reader and the formation of 4-methylumbelliferyl by measuring fluorescence at 450 nm (370 nm ex, 435 nm cutoff, medium gain).
We used a custom MATLAB script to process all raw kinetic data. This script removed all concentration values that fell outside of either (i) the range of our standard curve (absorbance/fluorescence vs. μM; FIG. 39) or (ii) the initial rate regime (>10% of the pNPP or 4-MUP concentration used in the assay). When this step reduced kinetic dataset to fewer than ten points, we re-measured those datasets to collect at least ten. We fit final datasets, in turn, with a linear regression model (using Matlab's backslash operator).
We evaluated kinetic models in three steps: (i) We fit initial-rate measurements collected in the absence and presence of inhibitors to Michaelis-Menten and inhibition models, respectively (here, we used the nlinfit and fminsearch functions from MATLAB; TABLE 12). (ii) We used an F-test to compare the mixed model to the single-parameter model with the least sum squared error (here, we used the fedf function from MATLAB to assign p-values), and we accepted the mixed model when p<0.05.

[2] = tested on: insulin receptor (IR) phosphorylation (PTP1B-mediated) in HEK293T/17 cells; test: ELISA of insulin receptor (IR) phosphorylation in HEK293T/17 cells; type: cell-based; conditions: 3% DMSO, 10 minutes, starved HEK293T/17 cells, vs 3% DMSO control
Excerpt: Analysis of PTP1B inhibition in HEK293TCells. We prepared HEK293T/17 cells for an enzyme-linked immunosorbent assay (ELISA) by growing them in 75 cm^2 culture flasks (Corning) with DMEM media supplemented with 10% FBS, 100 units/ml penicillin, and 100 units/ml streptomycin. We replaced the media every day for 3-5 days until the cells reached 80-100% confluency.
We measured the influence of inhibitors on insulin receptor (IR) phosphorylation by using an IR-specific ELISA (FIG. 35). Briefly, we starved cells for 48 hours in FBS-free media and incubated the with inhibitors (all at 3% DMSO) for 10 minutes. After incubation, we lysed cells with lysis buffer (9803, Cell Signaling Technology) supplemented with 1× halt phosphatase inhibitor cocktail and 1× halt protease inhibitor cocktail (Thermo Fisher Scientific) for 10 min, pelleted the cell debris, and used the lysis buffer to dilute each sample to 60 mg/ml total protein. We measured IR phosphorylation in subsequent dilutions of the 60 mg/ml samples with the PathScan® Phospho-Insulin Receptor β (panTyr) Sandwich ELISA Kit (Cell Signaling Technology; #7082).
Statistical analysis and reproducibility. We determined statistical significance (FIG. 23H) with a two-tailed Student's t-test (details in TABLE 14), and we used an F-test to compare one- and two-parameter models of inhibition (TABLE 12).

[3] = molecular target: T2, PTP1B (Homo sapiens, UniProt P18031); test: X-ray crystallography of PTP1B soaked with ligand; type: binding, H. sapiens
T2 construct: In this study, we used a well-studied truncation variant (i.e., PTP1B1-321); His-tag; made in house; host or cells: E. coli BL21 (DE3), pET21b
T2 sequence (P18031 1-321): T1 sequence (P18031 1-321)
Description: X-ray crystallography. We prepared crystals of PTP1B by using hanging drop vapor diffusion. In brief, we added 2 μL of PTP1B (~600 μM PTP1B, 50 mM HEPES, pH 7.3) to 6 μL of crystallization solution (100 mM HEPES, 200 mM magnesium acetate, and 14% polyethylene glycol 8000, pH 7.5) and incubated the resulting droplets over crystallization solution for one week at 4° C. (EasyXtal CrystalSupport, Qiagen). We soaked crystals with ligand by transferring them to droplets formed with 6 μL of crystallization solution and 1 μL of ligand solution (10 mM in DMSO), which we incubated for 2-5 days at 4° C. We prepared all […] for freezing by soaking them in cryoprotectant formed from a 70/30 (v/v) mixture of buffer (100 mM HEPES, 200 mM magnesium acetate, and 25% polyethylene glycol 8000, pH 7.5) and glycerol.
We collected X-ray diffraction data through the Collaborative Crystallography Program at Lawrence Berkeley National Lab (ALS ENABLE, beamline 8.2.1, 100 K, 1.00003 Å). We performed integration, scaling, and merging of X-ray diffraction data using the xia2 software package^79, and we carried out molecular replacement and structure refinement with the PHENIX graphical interface,^80 supplemented with manual model adjustment in COOT^81 and one round of PDB-REDO^82 (the latter, only for the PTP1B-AD complex).

[4] = competitive model of inhibition, read-out: Fit par. Ki, competitive model
[5] = mixed model, uncompetitive constant, read-out: Fit par. Ki,u, mixed model
[6] = noncompetitive model of inhibition, read-out: Fit par. Ki, noncompetitive model
[7] = uncompetitive model of inhibition, read-out: Fit par. Ki, uncompetitive model

IC50 ([1]; Example 2, HEPES pH 7.3, ± 95% confidence interval)	Ki [1, 4]	Ki ([1]; mixed model, competitive constant, read-out: Fit par. Ki,c, mixed model)	Ki [1, 5]	Ki [1, 6]	Ki [1, 7]	solubility (crystal soaking experiments) [3]	SMILES	IR phosphorylation (ELISA signal) ([2]; 930 μM)	IR phosphorylation (ELISA signal) ([2]; 930 μM, listed as DHA)	IC50 ([1]; Example 1, HEPES pH 7.5)	model (mode) of PTP1B inhibition from Michaelis-Menten fits ([1]; pNPP initial rates)	IR phosphorylation (ELISA signal) ([2]; 405 μM)	IR phosphorylation (ELISA signal) ([2]; 405 μM, listed as ABOL)
165 ± 33 µM	14.8 µM	5690 µM	169 µM	190 µM	168 µM	–	CC1=C[C@@H]2C(=C(C)CC[C@H]2C(C)C)CC1 [(+)-1 (10),4-cadinadiene]	–	–	–	–	–	–
–	178 µM	–	469 µM	541 µM	469 µM	–	CC1=C[C@H]2[C@@H](CC1)[C@H](C)CC[C@H]2[C@@H](C)C(=O)O [dihydroartemisinic acid, reference compound]	reduction in signal	reduced signals	–	–	–	–
–	–	–	–	–	–	–	CC1=CCC[C@@]2(C)CCC3=C(C)CC[C@@H](C[C@H]12)C3(C)C [taxadiene]	–	–	119 µM	mixed inhibition	–	–
–	178 µM	–	469 µM	541 µM	469 µM	soluble	CC(C)=CCC[C@](C)(O)[C@@H]1CC=C(C)CC1 [α-bisabolol, reference compound]	–	–	–	–	reduction in signal	reduced signals
